According to US11566022B2, “3-(5-methoxy-1-oxoisoindolin-2-yl)piperidine-2,6-dione derivatives and uses thereof” (NOVARTIS AG, priority 2019, dated 2023):
Read-outs that look alike come from different tables or passages of the source.

Target: HiBit-WIZ fusion protein (Homo sapiens, UniProt O95785+Q96SW2)
Assay: Quantification of WIZ protein levels in HiBit tag fusion protein assay (WIZ HiBit assay in 293T cells)
Assay type: cell-based
Parameters: Dmax: dose or concentration left out as unconfirmed
Conditions: for Dmax / remaining activity at up to 25 µM / remaining activity: HEK-293T; for remaining activity at up to 25 µM: read-out: WIZ Amax; for DC50: WIZ HiBit assay in 293T cells, 10-point, 5-fold dose response, highest concentration 25 μM, about 18 hours, read-out: WIZ AC50; for remaining activity: read-out: WIZ Amax, DMSO-normalized, curve-fitted percentage of WIZ-HiBit remaining at 25 uM
[1] = 100 minus Amax, 293T cells, read-out: % degradation of WIZ (100-Amax)
[2] = DMSO-normalized, curve-fitted percentage of WIZ-HiBit remaining at 25 uM, 293T cells
[3] = read-out: % degradation of WIZ (100-Amax), 100 minus Amax, 293T cells

Chain of HiBit-WIZ fusion protein (O95785 whole entry, the tested form may be a part): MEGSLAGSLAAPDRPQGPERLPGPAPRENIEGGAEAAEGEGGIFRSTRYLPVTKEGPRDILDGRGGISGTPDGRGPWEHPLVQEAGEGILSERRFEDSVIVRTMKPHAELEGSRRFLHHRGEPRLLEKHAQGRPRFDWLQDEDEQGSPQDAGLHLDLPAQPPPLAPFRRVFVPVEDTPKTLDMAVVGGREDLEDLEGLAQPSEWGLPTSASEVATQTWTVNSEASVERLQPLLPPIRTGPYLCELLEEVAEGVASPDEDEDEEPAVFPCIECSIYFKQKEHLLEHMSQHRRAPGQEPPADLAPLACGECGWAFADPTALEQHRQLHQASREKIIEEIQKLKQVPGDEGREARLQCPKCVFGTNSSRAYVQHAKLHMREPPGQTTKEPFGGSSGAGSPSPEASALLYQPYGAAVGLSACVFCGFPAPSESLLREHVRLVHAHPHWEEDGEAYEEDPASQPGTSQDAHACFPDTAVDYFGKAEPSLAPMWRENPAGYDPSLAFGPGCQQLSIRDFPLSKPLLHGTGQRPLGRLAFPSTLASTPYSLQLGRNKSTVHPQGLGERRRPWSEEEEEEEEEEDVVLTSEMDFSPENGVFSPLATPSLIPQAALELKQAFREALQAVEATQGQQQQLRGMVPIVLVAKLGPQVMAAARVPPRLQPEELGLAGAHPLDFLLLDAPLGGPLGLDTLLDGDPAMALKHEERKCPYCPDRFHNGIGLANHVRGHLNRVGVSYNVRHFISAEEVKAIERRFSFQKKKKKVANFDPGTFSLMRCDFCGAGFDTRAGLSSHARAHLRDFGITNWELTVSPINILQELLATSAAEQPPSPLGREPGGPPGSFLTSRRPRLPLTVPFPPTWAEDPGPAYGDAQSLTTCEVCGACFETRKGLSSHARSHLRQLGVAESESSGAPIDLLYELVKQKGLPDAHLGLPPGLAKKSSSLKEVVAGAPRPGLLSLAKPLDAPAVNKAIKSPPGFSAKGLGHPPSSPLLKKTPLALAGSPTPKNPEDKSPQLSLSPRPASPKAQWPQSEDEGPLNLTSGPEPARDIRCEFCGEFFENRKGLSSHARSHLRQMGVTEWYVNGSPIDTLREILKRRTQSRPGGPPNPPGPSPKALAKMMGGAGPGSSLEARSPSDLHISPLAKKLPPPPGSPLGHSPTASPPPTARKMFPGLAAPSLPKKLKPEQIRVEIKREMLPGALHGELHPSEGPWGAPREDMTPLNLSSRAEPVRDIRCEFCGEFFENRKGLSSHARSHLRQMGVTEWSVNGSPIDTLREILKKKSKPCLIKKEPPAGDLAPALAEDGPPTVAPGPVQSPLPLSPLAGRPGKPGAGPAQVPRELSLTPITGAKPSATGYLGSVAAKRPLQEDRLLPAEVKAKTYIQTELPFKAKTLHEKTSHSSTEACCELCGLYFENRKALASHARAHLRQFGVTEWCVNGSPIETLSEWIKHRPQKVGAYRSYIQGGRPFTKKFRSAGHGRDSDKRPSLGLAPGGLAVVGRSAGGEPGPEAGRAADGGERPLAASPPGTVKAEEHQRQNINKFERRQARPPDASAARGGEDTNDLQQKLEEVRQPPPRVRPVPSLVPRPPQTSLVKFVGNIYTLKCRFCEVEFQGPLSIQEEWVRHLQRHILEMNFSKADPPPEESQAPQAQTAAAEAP
Chain of HiBit-WIZ fusion protein (Q96SW2 whole entry, the tested form may be a part): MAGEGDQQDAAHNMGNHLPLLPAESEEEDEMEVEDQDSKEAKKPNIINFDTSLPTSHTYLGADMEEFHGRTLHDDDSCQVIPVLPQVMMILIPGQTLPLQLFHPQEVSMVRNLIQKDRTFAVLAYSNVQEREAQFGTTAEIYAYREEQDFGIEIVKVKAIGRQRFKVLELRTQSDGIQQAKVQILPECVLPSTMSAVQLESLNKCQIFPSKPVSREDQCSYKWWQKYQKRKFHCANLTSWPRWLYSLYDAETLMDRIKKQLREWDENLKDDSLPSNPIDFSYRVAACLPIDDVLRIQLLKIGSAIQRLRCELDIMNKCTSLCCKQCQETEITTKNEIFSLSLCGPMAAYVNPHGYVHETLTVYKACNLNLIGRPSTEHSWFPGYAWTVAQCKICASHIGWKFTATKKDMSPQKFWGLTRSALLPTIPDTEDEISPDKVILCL
Chain of HiBit-WIZ fusion protein (Q16531 whole entry partner, the tested form may be a part): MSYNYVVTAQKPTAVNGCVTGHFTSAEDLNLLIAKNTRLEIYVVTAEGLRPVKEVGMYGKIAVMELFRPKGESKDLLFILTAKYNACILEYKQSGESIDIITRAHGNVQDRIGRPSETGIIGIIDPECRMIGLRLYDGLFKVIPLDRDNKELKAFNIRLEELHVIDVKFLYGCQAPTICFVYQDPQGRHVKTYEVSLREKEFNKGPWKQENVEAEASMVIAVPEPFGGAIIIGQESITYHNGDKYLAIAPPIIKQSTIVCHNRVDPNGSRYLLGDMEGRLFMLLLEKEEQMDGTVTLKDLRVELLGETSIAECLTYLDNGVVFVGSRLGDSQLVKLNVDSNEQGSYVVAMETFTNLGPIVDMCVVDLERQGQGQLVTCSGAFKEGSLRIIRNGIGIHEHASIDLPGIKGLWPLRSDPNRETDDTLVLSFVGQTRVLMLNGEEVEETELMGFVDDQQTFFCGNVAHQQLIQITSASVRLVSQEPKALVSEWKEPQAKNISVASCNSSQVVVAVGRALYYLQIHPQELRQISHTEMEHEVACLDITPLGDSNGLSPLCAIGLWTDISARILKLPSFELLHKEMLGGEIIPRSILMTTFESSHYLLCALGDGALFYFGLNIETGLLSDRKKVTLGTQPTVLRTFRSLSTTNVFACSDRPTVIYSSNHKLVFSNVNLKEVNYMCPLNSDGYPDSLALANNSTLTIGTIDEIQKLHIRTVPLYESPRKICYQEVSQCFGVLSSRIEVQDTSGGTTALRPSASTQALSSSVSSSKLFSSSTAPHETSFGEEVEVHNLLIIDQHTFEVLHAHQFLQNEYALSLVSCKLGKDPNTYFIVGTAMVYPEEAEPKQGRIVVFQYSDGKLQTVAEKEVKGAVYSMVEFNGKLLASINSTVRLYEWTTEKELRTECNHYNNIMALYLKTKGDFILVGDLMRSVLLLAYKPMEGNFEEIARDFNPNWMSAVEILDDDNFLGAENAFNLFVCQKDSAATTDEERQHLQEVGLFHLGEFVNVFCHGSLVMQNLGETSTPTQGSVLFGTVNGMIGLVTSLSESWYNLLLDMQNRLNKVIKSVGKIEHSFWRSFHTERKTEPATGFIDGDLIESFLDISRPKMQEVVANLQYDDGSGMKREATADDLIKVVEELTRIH

Dmax [1] | remaining activity at up to 25 µM [2] | DC50 | SMILES | Dmax [3] | remaining activity (293T cells) | % degradation of WIZ (100-Amax) (100 minus Amax, at 25 uM, 293T cells) | WIZ Amax [2]
84.3% | 15.7% | 3.8 µM | COc1cc(CN2CCCC[C@H]2COc2ccc3c(c2)CN(C2CCC(=O)NC2=O)C3=O)ccc1C (stereo partly drawn) [Compound I-50s] | – | – | – | –
25.9% | 74.1% | > 25 µM | O=C1CCC(N2Cc3cc(OC[C@@H]4CCCCN4Cc4ncc[nH]4)ccc3C2=O)C(=O)N1 (stereo partly drawn) [Compound I-50w] | – | – | – | –
92.7% | 7.28% | 0.00047 µM | O=C1CCC(N2Cc3cc(OC[C@H]4CCCCN4Cc4ccc5c(c4)OC(F)(F)O5)ccc3C2=O)C(=O)N1 (stereo partly drawn) [Compound I-184] | – | – | – | –
51.8% | 48.2% | 0.056 µM | O=C1CCC(N2Cc3cc(OC[C@H]4CCCCN4Cc4ccc(C5CCN(CC6CCOCC6)CC5)cc4)ccc3C2=O)C(=O)N1 (stereo partly drawn) [Compound I-197, 3-(1-oxo-5-(((R)-1-(4-(1-((tetrahydro-2H-pyran-4-yl)methyl)piperidin-4-yl)benzyl)piperidin-2-yl)methoxy)isoindolin-2-yl)piperidine-2,6-dione] | – | – | – | –
93.2% | 6.8% | 0.047 µM | O=C1CCC(N2Cc3cc(OC[C@@H]4CCCCN4Cc4cnn(C5CCCCC5)c4)ccc3C2=O)C(=O)N1 (stereo partly drawn) [Compound I-50p] | – | – | – | –
94.5% | 5.54% | 0.018 µM | O=C1CCC(N2Cc3cc(OC[C@H]4CCCCN4Cc4ccc(F)cc4Cl)ccc3C2=O)C(=O)N1 (stereo partly drawn) [Compound I-114] | – | – | – | –
23.4% | 76.6% | > 25 µM | Cc1nc(C(F)(F)F)ccc1C(=O)N1CCCC[C@H]1COc1ccc2c(c1)CN(C1CCC(=O)NC1=O)C2=O (stereo partly drawn) [Compound I-72n] | – | – | – | –
20.6% | 79.4% | > 25 µM | O=C1CCC(N2Cc3cc(OC[C@@H]4CCCCN4C(=O)c4cnnn4-c4ccccc4)ccc3C2=O)C(=O)N1 (stereo partly drawn) [Compound I-72c] | – | – | – | –
98.6% | 1.39% | 0.017 µM | O=C1CCC(N2Cc3cc(OC[C@H]4CCCCN4Cc4cnc5ccccc5c4)ccc3C2=O)C(=O)N1 (stereo partly drawn) [Compound I-150] | – | – | – | –
96% | 3.95% | 0.072 µM | O=C1CCC(N2Cc3cc(OC[C@H]4CCCCN4Cc4ccccc4N4CCOCC4)ccc3C2=O)C(=O)N1 (stereo partly drawn) [Compound I-101] | – | – | – | –
85.4% | 14.6% | 0.38 µM | CO[C@H]1C[C@@H](CN2CCCC[C@@H]2COc2ccc3c(c2)CN(C2CCC(=O)NC2=O)C3=O)C1 (stereo partly drawn) [Compound I-118, 3-(5-(((R)-1-(((1s,3S)-3-methoxycyclobutyl)methyl)piperidin-2-yl)methoxy)-1-oxoisoindolin-2-yl)piperidine-2,6-dione] | – | – | – | –
28.8% | 71.2% | > 25 µM | Cc1nnc(-c2ccc(CN3CCCC[C@H]3COc3ccc4c(c3)CN(C3CCC(=O)NC3=O)C4=O)cc2)o1 (stereo partly drawn) [Compound I-50i] | – | – | – | –
0.9% | 99.1% | > 25 µM | O=C1CCC(N2Cc3cc(OC[C@@H]4CCCCN4C(=O)[C@@H]4CCCCN4C4CC4)ccc3C2=O)C(=O)N1 (stereo partly drawn) [Compound I-72f] | – | – | – | –

The remaining lines, values behind:

SMILES | Dmax [1] | remaining activity at up to 25 µM [2] | DC50 | Dmax [3] | remaining activity (293T cells) | % degradation of WIZ (100-Amax) (100 minus Amax, at 25 uM, 293T cells) | WIZ Amax [2]
CC(C)c1cc(C(=O)N2CCCC[C@H]2COc2ccc3c(c2)CN(C2CCC(=O)NC2=O)C3=O)on1 (stereo partly drawn) [Compound I-72dp] | 30.5% | 69.5% | > 25 µM | – | – | – | –
O=C(O)Cn1cnc(CN2CCCC[C@@H]2COc2ccc3c(c2)CN(C2CCC(=O)NC2=O)C3=O)c1 (stereo partly drawn) [Compound I-50da] | 65.1% | 34.9% | 5.13 µM | – | – | – | –
CC(C)(C)OC(=O)NC1(CN2CCCC[C@H]2COc2ccc3c(c2)CN(C2CCC(=O)NC2=O)C3=O)CCCC1 (stereo partly drawn) [Compound I-50aq] | 15.4% | 84.6% | > 25 µM | – | – | – | –
CC(C)N1CCN(c2ccc(CN3CCCC[C@@H]3COc3ccc4c(c3)CN(C3CCC(=O)NC3=O)C4=O)cc2)CC1 (stereo partly drawn) [Compound I-227, 3-(5-(((R)-1-(4-(4-isopropylpiperazin-1-yl)benzyl)piperidin-2-yl)methoxy)-1-oxoisoindolin-2-yl)piperidine-2,6-dione] | – | – | 0.058 µM | 64.2% | 35.8% | – | –
Cc1ccnc(-c2cc(C(=O)N3CCCC[C@H]3COc3ccc4c(c3)CN(C3CCC(=O)NC3=O)C4=O)ccn2)c1 (stereo partly drawn) [Compound I-72fa] | 5.1% | 94.9% | > 25 µM | – | – | – | –
COc1ccc(CC(=O)N2CCCC[C@H]2COc2ccc3c(c2)CN(C2CCC(=O)NC2=O)C3=O)cn1 (stereo partly drawn) [Compound I-72hk] | 9.2% | 90.8% | > 25 µM | – | – | – | –
O=C1CCC(N2Cc3cc(OC[C@@H]4CCCCN4C(=O)Cc4cc[nH]n4)ccc3C2=O)C(=O)N1 (stereo partly drawn) [Compound I-72af] | 7.7% | 92.3% | > 25 µM | – | – | – | –
O=C1CCC(N2Cc3cc(OC[C@@H]4CCCCN4Cc4cncnc4)ccc3C2=O)C(=O)N1 (stereo partly drawn) [Compound I-50cq] | 7.3% | 92.7% | > 25 µM | – | – | – | –
COC(=O)c1nn(-c2cccc(C(F)(F)F)c2)cc1CN1CCCC[C@H]1COc1ccc2c(c1)CN(C1CCC(=O)NC1=O)C2=O (stereo partly drawn) [Compound I-50ay] | 25.7% | 74.3% | > 25 µM | – | – | – | –
O=C1CCC(N2Cc3cc(OC[C@@H]4CCCCN4C(=O)c4cccc(N5CCCCC5)n4)ccc3C2=O)C(=O)N1 (stereo partly drawn) [Compound I-72av] | 24.3% | 75.7% | > 25 µM | – | – | – | –
CCN1CCC(c2ccc(CN3CCCC[C@@H]3COc3ccc4c(c3)CN(C3CCC(=O)NC3=O)C4=O)cc2)CC1 (stereo partly drawn) [Compound I-129, 3-(5-(((R)-1-(4-(1-ethylpiperidin-4-yl)benzyl)piperidin-2-yl)methoxy)-1-oxoisoindolin-2-yl)piperidine-2,6-dione] | – | – | 0.046 µM | 67.7% | 32.3% | – | –
COc1cccc2c(C(=O)N3CCCC[C@H]3COc3ccc4c(c3)CN(C3CCC(=O)NC3=O)C4=O)c[nH]c12 (stereo partly drawn) [Compound I-72cq] | 31.1% | 68.9% | > 25 µM | – | – | – | –
O=C1CCC(N2Cc3cc(OC[C@H]4CCCCN4Cc4ccccc4Cn4cncn4)ccc3C2=O)C(=O)N1 (stereo partly drawn) [Compound I-50dd] | 39.6% | 60.4% | > 25 µM | – | – | – | –
O=C1CCC(N2Cc3cc(OC[C@@H]4CCCCN4Cc4cccc(O)c4O)ccc3C2=O)C(=O)N1 (stereo partly drawn) [Compound I-50bx] | 56.4% | 43.6% | 21 µM | – | – | – | –
COC(=O)c1nn(-c2cccc(C(F)(F)F)c2)cc1CN1CCCC[C@@H]1COc1ccc2c(c1)CN(C1CCC(=O)NC1=O)C2=O (stereo partly drawn) [Compound I-50dc] | 39.8% | 60.2% | > 25 µM | – | – | – | –
Cc1nnc(-c2ccc(CN3CCCC[C@@H]3COc3ccc4c(c3)CN(C3CCC(=O)NC3=O)C4=O)cc2)o1 (stereo partly drawn) [Compound I-50dv] | 65% | 35% | 2.99 µM | – | – | – | –
O=C1CCC(N2Cc3cc(OC[C@@H]4CCCCN4C(=O)C=C4CCCCC4)ccc3C2=O)C(=O)N1 (stereo partly drawn) [Compound I-72dm] | 11.5% | 88.5% | > 25 µM | – | – | – | –
O=C1CCC(N2Cc3cc(OC[C@H]4CCCCN4Cc4ccc(C(=O)N5CCCC5)cc4)ccc3C2=O)C(=O)N1 (stereo partly drawn) [Compound I-50bs] | 94.5% | 5.5% | 0.018 µM | – | – | – | –
COc1cc(C(=O)N2CCCC[C@H]2COc2ccc3c(c2)CN(C2CCC(=O)NC2=O)C3=O)c(F)cn1 (stereo partly drawn) [Compound I-72gn] | 26.4% | 73.6% | > 25 µM | – | – | – | –
CCN1CCC(F)(F)CC1COc1ccc2c(c1)CN(C1CCC(=O)NC1=O)C2=O (single isomer, unassigned) [I-252 (Isomer 3), 3-(5-((1-ethyl-4,4-difluoropiperidin-2-yl)methoxy)-1-oxoisoindolin-2-yl)piperidine-2,6-dione] | – | – | 0.045 µM | – | – | 55.1% | 44.9%
C[C@H](CC(=O)N1CCCC[C@H]1COc1ccc2c(c1)CN(C1CCC(=O)NC1=O)C2=O)c1ccccc1 (stereo partly drawn) [Compound I-72gu] | 0.2% | 99.8% | > 25 µM | – | – | – | –
Cn1ccc(-c2cccc(C(=O)N3CCCC[C@H]3COc3ccc4c(c3)CN(C3CCC(=O)NC3=O)C4=O)c2)n1 (stereo partly drawn) [Compound I-72id] | 11% | 89% | > 25 µM | – | – | – | –
Cc1nc(C(=O)N2CCCC[C@H]2COc2ccc3c(c2)CN(C2CCC(=O)NC2=O)C3=O)c(C)s1 (stereo partly drawn) [Compound I-72fp] | 9.5% | 90.5% | > 25 µM | – | – | – | –
CC(C)N1CCC(CC(=O)N2CCCC[C@H]2COc2ccc3c(c2)CN(C2CCC(=O)NC2=O)C3=O)CC1 (stereo partly drawn) [Compound I-72fe] | 18.5% | 81.5% | > 25 µM | – | – | – | –
COc1cc2[nH]nc(CN3CCCC[C@H]3COc3ccc4c(c3)CN(C3CCC(=O)NC3=O)C4=O)c2cc1OCc1ccccc1 (stereo partly drawn) [Compound I-50ae] | 53.1% | 46.9% | > 25 µM | – | – | – | –
N#Cc1ccc(CCC(=O)N2CCCC[C@H]2COc2ccc3c(c2)CN(C2CCC(=O)NC2=O)C3=O)cc1 (stereo partly drawn) [Compound I-72gh] | 10.9% | 89.1% | > 25 µM | – | – | – | –
Cc1nnc(-c2ccc(C(=O)N3CCCC[C@H]3COc3ccc4c(c3)CN(C3CCC(=O)NC3=O)C4=O)cc2)o1 (stereo partly drawn) [Compound I-72gy] | 44.1% | 55.9% | > 25 µM | – | – | – | –
